# Legend:
# [1] = test system: Saccharomyces cerevisiae (W1362 20A); assay: Glucose Uptake Index of S. cerevisiae culture with 5% (v/v) ionic liquid; assay type: cell-based; conditions: YPD medium, 30° C., 16 hours after addition
# Method: After 24 hours the test tube was removed and stored at 4° C.
# [2] = test system: Saccharomyces cerevisiae (W1362 20A); assay: Scale-up fermentation (25 mL broth) with 5 volume percent ionic liquid, HPLC over five hours; assay type: cell-based; conditions: five hour time span, FIG. 2
# Method: Cultures were again prepared using the same growth conditions as described above except that the total broth volume was 25 mL. The selected ionic liquids were added to a container of each broth in an amount of 5 volume percent. In these experiments, small samples were withdrawn from the broth for HPLC analysis periodically over a five hour time span to get a better idea of the extent of metabolic activity after ionic liquid addition as well as to provide information on glucose consumption and product formation. […] The calculation of GUI was made as described above, and amount of ethanol produced was taken directly from the HPLC data.
# [3] = Extraction of ethanol from an aqueous solution by ionic liquid; assay type: physicochemical; conditions: 3 mL aqueous solution about 31 g/L ethanol, 150 microliters (5 vol %) ionic liquid, overnight equilibration
# Method: (§1) Ethanol and isobutanol concentration in the solution was measured using HPLC as described above following thorough mixing and overnight equilibration of the contents of the vial.
# [4] = Extraction of isobutanol from an aqueous solution by ionic liquid; assay type: physicochemical; conditions: 3 mL aqueous solution about 31 g/L isobutanol, 150 microliters (5 vol %) ionic liquid, overnight equilibration
# Method: as §1
molecule,measurement,setting,value
"1-butyl-3-methylimidazolium 1,1,2,3,3,3-hexafluoropropanesulfonate [Example 11]",GUI of Example (Glucose Utilization Index in the presence of ionic liquid phase),[1],30.1
same,GUI of Example (Glucose Utilization Index in the presence of ionic liquid phase),[1]; listed as 14,31.9
"1-butyl-3-methylimidazolium 1,1,2-trifluoro-2-(perfluoroethoxy)ethanesulfonate [Example 4]",GUI of Example (Glucose Utilization Index in the presence of ionic liquid phase),[1],22.0
"1-butyl-3-methylimidazolium 1,1,2-trifluoro-2-(trifluoromethoxy)ethanesulfonate [Example 10]",GUI of Example (Glucose Utilization Index in the presence of ionic liquid phase),[1],37.1
"1-butyl-3-methylimidazolium 2-(1,2,2,2-tetrafluoroethoxy)-1,1,2,2-tetrafluoroethanesulfonate [Example 13]",GUI of Example (Glucose Utilization Index in the presence of ionic liquid phase),[1],42.8
1-butyl-3-methylpyrrolidinium bis(trifluoromethylsulfonyl)imide [Example 15],ethanol production,[2],remained robust
same,glucose uptake,[2],remained robust
1-ethyl-3-methylimidazolium bis(trifluoromethylsulfonyl)imide [Example 6],GUI of Example (Glucose Utilization Index in the presence of ionic liquid phase),[1],76.8
same,Ethanol (concentration in the solution after extraction),[3],670 mM
same,ethanol production,[2],remained robust
same,glucose uptake,[2],remained robust
same,Isobutanol (concentration in the solution after extraction),[4],389 mM
1-hexyl-3-methylimidazolium bis(trifluoromethylsulfonyl)imide [Example 9],GUI of Example (Glucose Utilization Index in the presence of ionic liquid phase),[1],89.5
same,Ethanol (concentration in the solution after extraction),[3],678 mM
same,ethanol production,[2],remained robust
same,glucose uptake,[2],remained robust
same,Isobutanol (concentration in the solution after extraction),[4],388 mM
3-methyl-1-propylpyridinium bis(trifluoromethylsulfonyl)imide [Example 12],GUI of Example (Glucose Utilization Index in the presence of ionic liquid phase),[1],97.1
"CCCCCCn1cc[n+](C)c1.FC(F)(F)C(F)(F)[P-](F)(F)(F)(C(F)(F)C(F)(F)F)C(F)(F)C(F)(F)F [Example 1, 1-hexyl-3-methylimidazolium tris(pentafluoroethyl)trifluorophosphate]",GUI of Example (Glucose Utilization Index in the presence of ionic liquid phase),[1],99.7
same,Ethanol (concentration in the solution after extraction),[3],680 mM
same,ethanol production,[2],remained robust
same,glucose uptake,[2],remained robust
same,Isobutanol (concentration in the solution after extraction),[4],404 mM
"CCCCn1cc[n+](C)c1.F[P-](F)(F)(F)(F)F [Example 7, 1-butyl-3-methylimidazolium hexafluorophosphate]",GUI of Example (Glucose Utilization Index in the presence of ionic liquid phase),[1],48.2
"tetradecyl(tri-n-hexyl)phosphonium 1,1,2-trifluoro-2-(perfluoroethoxy)ethanesulfonate [Example 2]",GUI of Example (Glucose Utilization Index in the presence of ionic liquid phase),[1],78.4
